Results reported in patent US20110287470A1, “CELL CULTURE METHOD TO FORM AGGREGATES” (priority 2008, published 2011).

Tested on: cardiac tissue generated from cardiomyocytes derived from human ESCs
Assay: Multi-electrode array electrophysiological recordings of CardioSpot cardiac tissue
Type: cell-based
Settings: for repolarising potential (delay measured from the first signal): control 140 ms, FIG. 8
Experimental: CardioSpot made using primary or stem cell derived cardiomyocytes are placed onto the porous MEAs. Electrophysiological recordings were performed either through the supporting membrane or from under the membrane in order to get a direct contact of the tissues with recording electrodes. Control recording were performed using the culture medium as well a the solution used for reference molecules ([…], and lidocaine) Pharmacological experiments were carried out using reference compounds to characterise and validate the cardiac tissue generated from cardiomyocytes derived from human ESCs and engineered using the method of invention.

Structure (SMILES) | repolarising potential (delay measured from the first signal) (30 nM E4031, after 5 min) [ms] | repolarising potential (delay measured from the first signal) (30 nM E4031, after 15 min) [ms] | decrease of the amplitude of the electrophysiological signals (30 uM lidocaine, after 6 minutes, FIG. 7) [%] | amplitude of the first signal (predominantly dependent on sodium channel opening) (lidocaine, within few minutes, FIG. 7)
Cc1cccc(CCN2CCC(C(=O)c3ccc(NS(C)(=O)=O)cc3)CC2)n1 [E4031] | 155 | 173 |  | 
CCN(CC)CC(=O)Nc1c(C)cccc1C [lidocaine] |  |  | 50 | dramatic decrease of the amplitude
